IC50 data for 28 compounds are collected here from patent publication US20070149519A1, “Benzimidazol substituted thiopene derivatives with activity on ikk3” (priority 2004, published 2007).

The structures appear in SMILES notation. Bounds are passed on as bounds.

In the assay the target is T1, Recombinant human IKK3 (Homo sapiens, UniProt Q14164).
T1 construct: FLAG; made in house
T1 sequence (Q14164 1-716): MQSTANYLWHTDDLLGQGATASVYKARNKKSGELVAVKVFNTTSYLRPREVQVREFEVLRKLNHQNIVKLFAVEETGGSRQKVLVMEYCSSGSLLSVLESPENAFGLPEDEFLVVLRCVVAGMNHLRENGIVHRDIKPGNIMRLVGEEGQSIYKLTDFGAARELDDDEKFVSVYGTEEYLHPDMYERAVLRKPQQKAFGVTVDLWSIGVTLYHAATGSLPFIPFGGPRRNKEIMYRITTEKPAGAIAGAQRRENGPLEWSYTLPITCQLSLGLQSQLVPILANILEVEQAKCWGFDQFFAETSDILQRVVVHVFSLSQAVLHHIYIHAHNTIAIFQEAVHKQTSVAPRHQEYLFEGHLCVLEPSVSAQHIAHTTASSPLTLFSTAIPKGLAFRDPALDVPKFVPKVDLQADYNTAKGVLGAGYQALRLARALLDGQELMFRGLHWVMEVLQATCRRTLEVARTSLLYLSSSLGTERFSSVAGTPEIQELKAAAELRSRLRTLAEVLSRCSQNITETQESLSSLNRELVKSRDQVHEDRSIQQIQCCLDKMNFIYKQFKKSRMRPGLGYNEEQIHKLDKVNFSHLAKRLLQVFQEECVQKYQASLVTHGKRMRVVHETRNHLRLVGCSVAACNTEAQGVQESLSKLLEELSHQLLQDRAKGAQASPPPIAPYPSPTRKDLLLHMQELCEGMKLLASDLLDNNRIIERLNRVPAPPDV
Put plainly: IKK3 TR-FRET kinase assay. It is filed as biochemical. Particulars: IKK3 15 nM, GST-IκBα 25 nM, ATP 2 μM, 15 minutes at room temperature. How it is done: Recombinant human IKK3 was expressed in baculovirus as a FLAG tagged fusion protein, and its activity was assessed using a time-resolved fluorescence resonance energy transfer (TR-FRET) assay. Briefly, IKK3 (15 nM final) diluted in assay buffer (50 mM HEPES, 10 mM MgCl2, 1 mM CHAPS pH 7.4 with 1 mM DTT and 0.01% w/v BSA) was added to wells containing various concentrations of compound or DMSO vehicle (3% final). The reaction was initiated by the addition of GST-IκBα substrate (25 nM final)/ATP (2 μM final), in a total volume of 30 μl. The reaction was incubated for 15 minutes at room temperature, then terminated by the addition of 15 μl of 50 mM EDTA. Detection reagent (15 μl) in buffer (100 mM HEPES pH 7.4, 150 mM NaCl and 0.1% w/v BSA) containing antiphosphoserine-IκBα-32/36 monoclonal antibody 12C2 (Cell Signalling Technology, Massachusetts, USA) labelled with W-1024 europium chelate (Wallac OY, Turku, Finland), and an APC-labelled anti-GST antibody (Prozyme, San Leandro, Calif., USA) was added and the reaction was further incubated for 45 minutes at room temperature. The degree of phosphorylation of GST-IκBα was measured using a Packard Discovery plate reader (Perkin-Elmer Life Sciences, Pangbourne, UK) as a ratio of specific 665 nm energy transfer signal to reference europium 620 nm signal.
For `COc1cc2ncn(-c3cc(OCC4CCCO4)c(C#N)s3)c2cc1OC` (stereo not shown) [Example 22, 5-[5,6-bis(methyloxy)-1H-benzimidazol-1-yl]-3-[(tetrahydro-2-furanylmethyl)oxy]-2-thiophenecarbonitrile], the IC50 was 1000 to 10000 nM.

Take `COc1cc2ncn(-c3cc(OCc4ccncc4Br)c(C#N)s3)c2cc1OC` [Example 13, 5-[5,6-Bis(methyloxy)-1H-benzimidazol-1-yl]-3-{[(3-bromo-4-pyridinyl)methyl]oxy}-2-thiophenecarbonitrile]: the IC50 lay within 1000 to 10000 nM. Take `CCC[C@H](Oc1cc(-n2cnc3cc(OC)c(OC)cc32)sc1C#N)c1ccccc1Cl` [Example 25, 5-[5,6-bis(methyloxy)-1H-benzimidazol-1-yl]-3-{[(1S)-1-(2-chlorophenyl)butyl]oxy}-2-thiophenecarbonitrile]: the IC50 is under 1000 nM. For the compound `COc1cc2ncn(-c3cc(OCc4cccs4)c(C#N)s3)c2cc1OC` [Example 27, 5-[5,6-bis(methyloxy)-1H-benzimidazol-1-yl]-3-[(2-thienylmethyl)oxy]-2-thiophenecarbonitrile], the IC50 is under 1000 nM. For the compound `COc1cc2ncn(-c3cc(OCc4ccc(CO)cc4)c(C#N)s3)c2cc1OC` [Example 1, 5-[5,6-Bis(methyloxy)-1H-benzimidazol-1-yl]-3-({[4-(hydroxymethyl)phenyl]methyl}oxy)-2-thiophenecarbonitrile], the IC50 was under 1000 nM.

As for `COc1cc2ncn(-c3cc(O[C@H](C)c4ccccc4C(F)(F)F)c(C#N)s3)c2cc1OC` [Example 16, 5-[5,6-Bis(methyloxy)-1H-benzimidazol-1-yl]-3-({(1 R)-1-[2-(trifluoromethyl)phenyl]ethyl}oxy)-2-thiophenecarbonitrile], the IC50 is 1000 to 10000 nM. As to `COc1cc2ncn(-c3cc(OCC4CCCCO4)c(C#N)s3)c2cc1OC` (stereo not shown) [Example 23, 5-[5,6-bis(methyloxy)-1H-benzimidazol-1-yl]-3-[(tetrahydro-2 H-pyran-2-ylmethyl)oxy]-2-thiophenecarbonitrile], the IC50 was under 1000 nM. Consider `COc1cc2ncn(-c3cc(OCCN4CCCC4=O)c(C#N)s3)c2cc1OC` [Example 21, 5-[5,6-bis(methyloxy)-1H-benzimidazol-1-yl]-3-{[2-(2-oxo-1-pyrrolidinyl)ethyl]oxy}-2-thiophenecarbonitrile], for which the IC50 was under 1000 nM. `COc1cc2ncn(-c3cc(OCc4c(F)cccc4F)c(C#N)s3)c2cc1OC` [Example 11, 5-[5,6-bis(Methyloxy)-1H-benzimidazol-1-yl]-3-{[(2,6-difluorophenyl)methyl]oxy}-2-thiophenecarbonitrile]: the IC50 was under 1000 nM.

Take `COc1cc2c(cc1OCCCO)ncn2-c1cc(OCc2ccccc2C(F)(F)F)c(C#N)s1` [Example 12, 5-[5-[(3-Hvdroxypropyl)oxy]-6-(methyloxy)-1H-benzimidazol-1-yl]-3-({[2-(trifluoromethyl)phenyl]methyl}oxy)-2-thiophenecarbonitrile]: the IC50 is under 1000 nM. In the case of `COc1cc2ncn(-c3cc(OCCN4CCOCC4)c(C#N)s3)c2cc1OC` [Example 20, 5-[5,6-bis(methyloxy)-1H-benzimidazol-1-yl]-3-{[2-(4-morpholinyl)ethyl]oxy}-2-thiophenecarbonitrile], the IC50 lay in the range of 1000 to 10000 nM. For `COc1cc2ncn(-c3cc(OCc4ccc5nnn(C)c5c4)c(C#N)s3)c2cc1OC` [Example 6, 5-[5,6-bis(methyloxy)-1H-benzimidazol-1-yl]-3-{[(1-methyl-1H-1,2,3-benzotriazol-6-yl)methyl]oxy}-2-thiophenecarbonitrile], the IC50 is under 1000 nM. Consider `COc1cc2ncn(-c3cc(OCc4ccsc4)c(C#N)s3)c2cc1OC` [Example 26, 5-[5,6-bis(methyloxy)-1H-benzimidazol-1-yl]-3-[(3-thienylmethyl)oxy]-2-thiophenecarbonitrile], for which the half-maximal inhibitory concentration (IC50) is under 1000 nM. Next, `N#Cc1sc(-n2cnc3ccccc32)cc1OCc1ccccc1` [Example 4, 5-(1H-Benzimidazol-1-yl)-3-[(phenylmethyl)oxy]-2-thiophenecarbonitrile]: 1000 to 10000 nM. As for `COc1cc2ncn(-c3cc(OCc4cc(F)ccc4F)c(C#N)s3)c2cc1OC` [Example 8, 5-[5,6-Bis(methyloxy)-1H-benzimidazol-1-yl]-3-{[(2,5-difluorophenyl)methyl]oxy}-2-thiophenecarbonitrile], the IC50 is under 1000 nM.

Regarding `COc1cc2ncn(-c3cc(OCCc4ccccc4)c(C#N)s3)c2cc1OC` [Example 17, 5-[5,6-bis(methyloxy)-1H-benzimidazol-1-yl]-3-[(2-phenylethyl)oxy}-2-thiophenecarbonitrile], the IC50 was under 1000 nM. Next, `COc1cc2ncn(-c3cc(OCCOc4ccccc4)c(C#N)s3)c2cc1OC` [Example 24, 5-[5,6-bis(methyloxy)-1H-benzimidazol-1-yl]-3-{[2-(phenyloxy)ethyl]oxy}-2-thiophenecarbonitrile]: under 1000 nM; `CC[C@@H](C)Oc1cc(-n2cnc3cc(OC)c(OC)cc32)sc1C#N` [Example 28, 5-[5,6-bis(methyloxy)-1H-benzimidazol-1-yl]-3-{[(1 R)-1-methylpropyl]oxy}-2-thiophenecarbonitrile]: 1000 to 10000 nM; `COc1cc2c(cc1OCCN1CCOCC1)ncn2-c1cc(OCc2ccccc2C(F)(F)F)c(C#N)s1` [Example 7, 5-(6-(Methyloxy)-5-([2-(4-morpholinyl)ethyl]oxy)-1H-benzimidazol-1-yl)-3-({[2-(trifluoromethyl)phenyl]methyl}oxy)-2-thiophene carbonitrile]: under 1000 nM. Regarding `COc1cc2ncn(-c3cc(OCC4CCCCC4)c(C#N)s3)c2cc1OC` [Example 14, 5-[5,6-Bis(methyloxy)-1H-benzimidazol-1-yl]-3-[(cyclohexylmethyl)oxy]-2-thiophenecarbonitrile], the IC50 was under 1000 nM. For the compound `COc1cc2ncn(-c3cc(O[C@H](C)c4ccccc4Cl)c(C#N)s3)c2cc1OC` [Example 2, 5-[5,6-Bis(methyloxy)-1H-benzimidazol-1-yl]-3-{[(1R)-1-(2-chlorophenyl)ethyl]oxy}-2-thiophenecarbonitrile], the IC50 was in the range of 1000 to 10000 nM. On to `N#Cc1sc(-n2cnc3cc(Cl)ccc32)cc1OCc1ccccc1` [Example 10, 5-(5-Chloro-1H-benzimidazol-1-yl)-3-[(phenylmethyl)oxy]-2-thiophenecarbonitrile], for which the half-inhibitory concentration (IC50) was 1000 to 10000 nM. As for `COc1ccccc1COc1cc(-n2cnc3cc(OC)c(OC)cc32)sc1C#N` [Example 19, 5-[5,6-bis(methyloxy)-1H-benzimidazol-1-yl]-3-({[2-(methyloxy)phenyl]methyl}oxy)-2-thiophenecarbonitrile], the IC50 is 1000 to 10000 nM. In the case of `COc1cc2ncn(-c3cc(OCc4ccccc4C(F)(F)F)c(C#N)s3)c2cc1OC` [Example 5, 5-[5,6-Bis(methyloxy)-1H-benzimidazol-1-yl]-3-({[2-(trifluoromethyl)phenyl]methyl}oxy)-2-thiophenecarbonitrile], the IC50 was under 1000 nM. Next, `COc1cc2ncn(-c3cc(OCc4ccccc4OC(F)(F)F)c(C#N)s3)c2cc1OC` [Example 18, 5-[5,6-bis(methyloxy)-1H-benzimidazol-1-yl]-3-[({2-[(trifluoromethyl)oxy]phenyl}methyl)oxy]-2-thiophenecarbonitrile]: under 1000 nM; `N#Cc1sc(-n2cnc3cc(C(=O)NCCN4CCOCC4)ccc32)cc1OCc1ccccc1C(F)(F)F` [Example 15, 1-[5-cyano-4-({[2-(trifluoromethyl)phenyl]methyl}oxy)-2-thienyl]-N-[2-(4-morpholinyl)ethyl]-1H-benzimidazole-5-carboxamide]: under 1000 nM; `COc1cc2ncn(-c3cc(OCc4ccccc4S(C)(=O)=O)c(C#N)s3)c2cc1OC` [Example 9, 5-[5,6-Bis(methyloxy)-1H-benzimidazol-1-yl]-3-({[2-(methylsulfonyl)phenyl]methyl}oxy)-2-thiophenecarbonitrile]: under 1000 nM. As for `Cc1ccccc1COc1cc(-n2cnc3ccccc32)sc1C#N` [Example 3, 5-(1H-Benzimidazol-1-yl)-3-{[(2-methylphenyl)methyl]oxy}-2-thiophenecarbonitrile], the IC50 is under 1000 nM.
